PMC7407491, “The Addition of a Synthetic LPS-Targeting Domain Improves Serum Stability While Maintaining Antimicrobial, Antibiofilm, and Cell Stimulating Properties of an Antimicrobial Peptide” (Biomolecules, 2020)
Converted amounts (≈) assume the structure as drawn.

Experiments:
Test in all cases: Antibiogram of clinical isolate
Format in all cases: cell-based
Design in all cases: key to Interpretation: R represents “resistant”; I represents “intermediate”; S represents “sensitive”
[1] = system: Methicillin Resistant Staphylococcus aureus; conditions: veterinary clinical isolate; for MIC: Staphylococcus aureus, read-out: MIC
Experimental: (§1) Veterinary clinical isolates, including Salmonella typhimurium, multi-drug resistant Escherichia coli, methicillin-resistant Staphylococcus aureus (MRSA), and methicillin-resistant Staphylococcus pseudointermedius (MRSP), were kindly provided by Dr. H. Cai (Department of Pathobiology, University of Guelph, ON, Canada). An antibiogram for these strains is available in the supplementary text (Table S1). Gram-negative strains were cultured in Luria−Bertani (LB) broth. Gram-positive strains were cultured in Tryptic soy broth (TSB). Both cultures were grown under aerobic conditions at 37 °C.
(§2) 1 Where R represents “resistant”, I represents “intermediate” and S represents “sensitive”.
(§3) 2 MIC represents the minimal inhibitory concentration of the antibiotic in mcg/mL.
(§4) 3 mm represents the diameter zone of inhibition against antibiotic disc.

Escherichia coli = conditions: multi-drug resistant veterinary clinical isolate; for MIC: Escherichia coli, read-out: MIC
Experimental: as §1, §2, §3, §4

[2] = system: Methicillin Resistant Staphylococcus pseudointermedius; conditions: veterinary clinical isolate; for MIC: Staphylococcus, read-out: MIC
Experimental: as §1, §2, §3, §4

Molecule	Interpretation [1]	diameter zone of inhibition against antibiotic disc [1]	MIC [1]	MIC (Escherichia coli)	Interpretation (Escherichia coli)	diameter zone of inhibition against antibiotic disc (Escherichia coli)	MIC [2]	Interpretation [2]	diameter zone of inhibition against antibiotic disc [2]
CC1(C)S[C@@H]2[C@H](NC(=O)[C@H](C(=O)O)c3ccsc3)C(=O)N2[C@H]1C(=O)O [Ticarcillin]	R	14 mm							
O=C(N[C@H](CO)[C@H](O)c1ccc([N+](=O)[O-])cc1)C(Cl)Cl [Chloramphenicol]	S	26 mm	4.5 µg/mL (≈ 13.9 µM)						
CCN1CCN(c2cc3c(cc2F)c(=O)c(C(=O)O)cn3C2CC2)CC1 [Enrofloxacin]	S	29 mm	≤ 0.099 µg/mL	> 18 µg/mL	R	7 mm	> 19 µg/mL	R	6 mm
CO/N=C(\C(=O)N[C@@H]1C(=O)N2C(C(=O)O)=C(CSC(=O)c3ccco3)CS[C@H]12)c1csc(N)n1 [Ceftiofur]	R	19 mm	3.9 µg/mL (≈ 7.45 µM)						
C[C@@H](O)[C@H]1C(=O)N2C(C(=O)O)=C(SCCN=CN)C[C@H]12 [Imipenem]	R	39 mm	≤ 0.56 µg/mL						
CO/N=C(/C(=O)N[C@@H]1C(=O)N2C(C(=O)O)=C([C@@H]3CCCO3)CS[C@H]12)c1csc(N)n1 [Cefovecin]					R	6 mm		R	21 mm
NCC[C@H](O)C(=O)N[C@@H]1C[C@H](N)[C@@H](O[C@H]2O[C@H](CN)[C@@H](O)[C@H](O)[C@H]2O)[C@H](O)[C@H]1O[C@H]1O[C@H](CO)[C@@H](O)[C@H](N)[C@H]1O [Amikacin]	S	18 mm	9.5 µg/mL (≈ 16.2 µM)						
Cc1onc(-c2ccccc2)c1C(=O)N[C@@H]1C(=O)N2[C@@H]1SC(C)(C)[C@@H]2C(=O)O [Oxacillin]	R	6 mm					1.8 µg/mL (≈ 4.48 µM)	R	14 mm
Polymixin-B	R	9 mm							
CN1CCN(c2cc3c(cc2F)c(=O)c(C(=O)O)cn3-c2ccc(F)cc2)CC1 [Difloxacin]	S	30 mm	≤ 0.07 µg/mL						
CO[C@@]1(NC(=O)Cc2cccs2)C(=O)N2C(C(=O)O)=C(COC(N)=O)CS[C@@H]21 [Cefoxitin]				> 69 µg/mL	R	6 mm		R	24 mm
CCC[C@@H]1C[C@@H](C(=O)N[C@@H]([C@H]2O[C@H](SC)[C@H](O)[C@@H](O)[C@H]2O)[C@H](C)Cl)N(C)C1 [Clindamycin]	R	6 mm	> 10 µg/mL				> 10 µg/mL	R	7 mm
Titracillin-clavulanate	R	15 mm							
CC(C)(O/N=C(\C(=O)N[C@@H]1C(=O)N2C(C(=O)[O-])=C(C[n+]3ccccc3)CS[C@H]12)c1csc(N)n1)C(=O)O [Ceftazidime]	R	13 mm	41 µg/mL (≈ 75 µM)						
C=CC1=C(C(=O)O)N2C(=O)[C@@H](NC(=O)/C(=N\OCC(=O)O)c3csc(N)n3)[C@H]2SC1 [Cefixime]	R	6 mm	> 26 µg/mL						
CCN1CCN(C(=O)N[C@@H](C(=O)N[C@@H]2C(=O)N3[C@@H]2SC(C)(C)[C@@H]3C(=O)O)c2ccccc2)C(=O)C1=O [Piperacillin]	R	12 mm							
CC1(C)S[C@@H]2[C@H](NC(=O)C(C(=O)O)c3ccccc3)C(=O)N2[C@H]1C(=O)O (stereo partly drawn) [Carbenicillin]	R	15 mm							
